Data: US9877999B2, “Methods for treating metastatic stage prostate cancer” (Ferring International SA, priority 2008, dated 2018)
Square brackets hold non-standard residues; d marks the D form. Peptide text beside a SMILES is read from it. * marks the point of attachment. dPhe(4-NHCONH2) = NC(=O)Nc1ccc(C[C@@H](N)C(=O)O)cc1; Dihydroorotyl(S) = O=C1C[C@@H](C(=O)*)NC(=O)N1; dPhe(4-Cl) = N[C@H](Cc1ccc(Cl)cc1)C(=O)O; Phe(4-NH2) = Nc1ccc(C[C@H](N)C(=O)O)cc1; d2Nal = N[C@H](Cc1ccc2ccccc2c1)C(=O)O; Lys(iPr) = CC(C)NCCCC[C@H](N)C(=O)O; d3Pal = N[C@H](Cc1cccnc1)C(=O)O

Tests used:
[1] = test system: luteinizing hormone (LH); test: Serum LH levels over time (clinical study CS21); assay type: in vivo, human; details: day 1; degarelix, ITT analysis set
Experimental: The study also investigated whether degarelix is safe and effective with respect to achieving and maintaining testosterone suppression to castrate levels, evaluated as the proportion of patients with testosterone suppression ≦0.5 ng/mL during 12 months of treatment. […] The study also evaluated the pharmacokinetics of the degarelix dosing regimens investigated. Finally, the study examined the effects of using the degarelix treatment on patients suffering from different stages of cancer.
Patients in two treatment groups received a degarelix starting dose of 240 mg at a concentration of 40 mg/mL (240@40) on day 0 administered as two equivalent subcutaneous (s.c.) injections of 120 mg each. Thereafter, patients received 12 additional single s.c. degarelix doses of either 80 mg at a concentration of 20 mg/mL (80@20: degarelix 240/80 mg group) or 160 mg at a concentration of 40 mg/mL (160@40: degarelix 240/160 mg group) administered s.c. every 28 days.
The secondary efficacy endpoints were: the proportion of patients with testosterone surge during the first 2 weeks of treatment; the proportion of patients with testosterone level ≦0.5 ng/mL at day 3; the percentage change in PSA from baseline to day 28; the probability of testosterone ≦0.5 ng/mL from day 56 through day 364; the levels of serum testosterone, LH, FSH and PSA over time through the study; the time to PSA failure, defined as two consecutive increases of 50%, and at least 5 ng/mL as compared to nadir; degarelix concentration over the first month and trough levels at day 308 and 336; the frequency and size of testosterone increases at day 255 and/or 259 compared to the testosterone level at day 252; the quality of life on days 0, 28, 84, 168 and end of study visit; the frequency and intensity of hot flushes experienced (scored daily from study start until end of study visit). In addition, two further secondary endpoints were added: the probability of sufficient testosterone response from day 28 through day 364 (a patient was considered to have insufficient testosterone response if they had one testosterone value >1.0 ng/mL or two consecutive testosterone values >0.5 ng/mL at day 28 onwards); and the percentage change in PSA from baseline to day 14.

[2] = human, in vivo, sc

Compound: CC(=O)N[C@H](Cc1ccc2ccccc2c1)C(=O)N[C@H](Cc1ccc(Cl)cc1)C(=O)N[C@H](Cc1cccnc1)C(=O)N[C@@H](CO)C(=O)N[C@@H](Cc1ccc(NC(=O)[C@@H]2CC(=O)NC(=O)N2)cc1)C(=O)N[C@H](Cc1ccc(NC(N)=O)cc1)C(=O)N[C@@H](CC(C)C)C(=O)N[C@@H](CCCCNC(C)C)C(=O)N1CCC[C@H]1C(=O)N[C@H](C)C(N)=O [degarelix, D-Alaninamide, N-acetyl-3-(2-naphthalenyl)-D-alanyl-4-chloro-D-phenylalanyl-3-(3-pyridinyl)-D-alanyl-L-seryl-4-[[[(4S)-hexahydro-2,6-dioxo-4-pyrimidinyl]carbonyl]amino]-L phenylalanyl-4-[(aminocarbonyl)amino]-D-phenylalanyl-L leucyl-N6-(1-methylethyl)-L-lysyl-L-prolyl] (Ac-[d2Nal][dPhe(4-Cl)][d3Pal]S[Phe(4-NH2)](Dihydroorotyl(S))[dPhe(4-NHCONH2)]L[Lys(iPr)]P[dA]-NH2)
- decrease of median LH from baseline [1]: approximately 88%
- median LH level [1]: < 0.7 IU/L
- significant metabolites in plasma samples [2]: No significant metabolites were detected
- AUC ([2]; 240 mg): 1240 ng·days/mL
